The values that follow are results of earlier work, collected in EP1860434A1, “Method for analysing substance mixtures” (Shimadzu Europa GmbH, priority 2006, dated 2007).

For this data set the following is noted: listed for the six substances of the Performance Test Probe; no measurement described.
On to “2-Ethyliden-1.5-dimethyl-3.3-diphenyl-pyrrolidin”, for which the pKa-Wert is 9.6.
Consider `CC(N)Cc1ccc2c(c1)OCO2` (stereo not drawn) [Methylendioxyamphetamin (MDA), Methylendioxyamphetamin], for which the pKa-Wert is given as 9.7.
Turning to `CN(C)C(=O)Oc1cccc([N+](C)(C)C)c1` [Neostigminbromid], the pKa-Wert is 12.
